# Source: patent US8772274B1, “Anti-cancer compositions and methods” (The Penn State Research Foundation, priority 2008, dated 2014)
# Structures can show the parent of a compound that is named as a salt.
# Columns and labels:
# [1] = system: PI3 kinase/Akt3 and MAP kinase signaling in UACC 903 cells; assay: Western blot analysis of melanoma cell lysates; type: cell-based
# Procedure: Melanoma cell line UACC 903 cells (1×10^6) are treated with increasing concentrations (7-21 μM) of PBIT and PBISe for 24 hours and cell lysates examined by Western blot analysis Cell lysates are harvested by addition of lysis buffer containing 50 mM HEPES (pH 7.5), 150 mM NaCl, 10 mM EDTA, 10% glycerol, 1% Triton X-100, 1 mM sodium orthovanadate, 0.1 mM sodium molybdate, 1 mM phenylmethylsulfonyl fluoride, 20 μg/ml aprotinin, and 5 μg/ml leupeptin. Whole cell lysates are centrifuged (≧10,000×g) for 10 minutes at 4° C. to remove cell debris. Protein concentrations are quantitated using the BCA assay (Pierce, Rockford, Ill.), and 30 μg of lysate loaded per lane onto NuPAGE Gels (Life Technologies, Carlsbad, Calif.). Following electrophoresis, samples are transferred to polyvinylidene difluoride membrane (Pall Corporation, Pensacola, Fla.). Blots are probed with antibodies to PRAS40 and phosphorylated PRAS40 (Thr246) (Invitrogen, Carlsbad, Calif.); antibodies to iNOS, cyclin D1, p27, p21, Erk2, α-enolase and secondary antibodies conjugated with horseradish peroxidase from Santa Cruz Biotechnology (Santa Cruz, Calif.); and antibodies to Akt3, phosphorylated-Akt (Ser473), phosphorylated-Erk 1/2 (Thr202/Tyr204), caspase-3 and cleaved PARP from Cell Signaling Technology (Danvers, Mass.). Immunoblots are developed using ECL (Pierce, Rockford, Ill.).
# [2] = system: A549 lung adenocarcinoma cells; assay: MTS cell viability assay, A549; type: cell-based, human
# Procedure: (§1) Growth inhibitory effects on cultured cells from human vertical growth phase (VGP) melanoma cell line WM115, Lung adenocarcinoma (A549), fibrosarcoma (HT-1080), prostate adenocarcinoma (PC-3), ovarian carcinoma (OVCAR-3), and breast adenocarcinoma (MDA-MB-231) are plated in 96 well plates at a density of 5×10^3 cells/well in 100 μl media. […] Dose response curves for each compound are generated and the IC50 values (μM) determined using GraphPad Prism software. Each experiment is replicated at least 3 times and the average IC50 (μM) values with standard error represented.
# UACC 903 melanoma tumors = assay: Topical application on melanoma tumor growth in vivo; conditions: topical daily 0.0945 umoles (1.5 ppm selenium, 5.12 mg/kg); day 17 through day 29
# Procedure: UACC 903 melanoma cells (0.25×10^5/site) are subcutaneously injected into left and right flanks of 4-6 weeks old female nude mice (n=4) and 24 h later PBIT, PBISe (0.0945 umoles, 1.5 ppm selenium equivalent to 5.12 mg/kg body weight) or vehicle control (acetone) is applied topically for 29 days. Sizes of developing tumors are measured and average sizes±S.E.M. (in mm^3) plotted. A minimum of 5 mice per group is used for the topical treatment.
# [3] = system: HT-1080 fibrosarcoma cells; assay: MTS cell viability assay, HT-1080; type: cell-based, human
# Procedure: as §1
# [4] = system: OVCAR-3 ovarian carcinoma cells; assay: MTS cell viability assay, OVCAR-3; type: cell-based, human
# Procedure: as §1
# [5] = system: A549, Caco-2, HT-1080, PC-3, OVCAR-3, MDA-MB-231, WM115; assay: MTS viability, all cancer cell lines tested (summary); type: cell-based, human
# Procedure: as §1
# UACC 903 melanoma cells = assay: Cell cycle analysis (propidium iodide, FACScan); type: cell-based; conditions: 3.5 to 21 μM; 24 hours
# Procedure: Cell cycle analysis is undertaken by growing 1.5×10^6 melanoma cells in 100-mm culture dishes followed by treatment with PBIT or PBISe (3.5 to 21 μM) for 24 hours. Cells are collected and stained using propidium iodide (100 μg/mL; Sigma, St Louis, Mo.), 20 μg/mL Ribonuclease A (Roche, Indianapolis, Ind.) 3 μg/mL Triton X-100 dissolved in 0.1% (W/V) sodium citrate for 30 minutes at 4° C. (Krishan, A., J Cell Biol 1975; 66:188-93). Stained cells are analyzed using the FACScan analyzer (Becton Dickinson, San Jose, Calif.) and data processed using ModFit LT software (Verity Software House, Topsham, Me.).
# [6] = system: colon adenocarcinoma cells (Caco-2, HT 29, HCT 116, SW 480); assay: MTS viability, four colon cancer cell lines (summary); type: cell-based
# Procedure: The IC50 value is evaluated by treating with increasing concentrations of PBIT, PEIT, PEISe (10-100 μM) or PBISe (1.6-50 μM) for 24-72 hours and the number of viable cell are quantified using MTS (Promega, Wis.).
# [7] = system: MDA-MB-231 breast adenocarcinoma cells; assay: MTS cell viability assay, MDA-MB-231; type: cell-based, human
# Procedure: as §1
# [8] = Systemic toxicity assessment, i.p. treatment; type: in vivo; conditions: nude mice, 3 weeks
# Procedure: Tumor kinetics are measured by subcutaneous injection of 5×10^6 UACC 903 or 2.5×10^61205 Lu cells in 0.2 ml of DMEM containing 10% FBS above left and right rib cages of 4-6 week old female nude mice (Harlan Sprague Dawley, Indianapolis, Ind.). Six days later, a fully vascularized tumor has developed and mice are randomly placed in control DMSO or experimental (PBIT or PBISe) groups (n=5 animals; 10 tumors total) followed by i.p. treatment with PBIT ([…]) or PBISe ([…]; equivalent to 2.5 ppm selenium per 20 g mouse) on Monday, Wednesday and Friday for 3 weeks. Dimensions of developing tumors and body weight are measured.
# Systemic toxicity of PBISe in animals is evaluated in nude mice. Mice are exposed to PBISe or PBIT ([…]), or vehicle DMSO, 3 times per week and animals weighed to ascertain possible toxicity. 4-6 week old female nude mice (Harlan Sprague Dawley, Indianapolis, Ind.) are injected i. p. with either control DMSO vehicle, PBIT or PBISe (0.315 μmoles each) for 3 weeks by following the regime used for tumorigenicity. Blood is then collected from each animal in plasma separator tubes with lithium heparin (BD Microtainer, BD, Franklin Lakes, N.J.) following cardiac puncture and analyzed for SGOT, SGPT, alkaline phosphatase, glucose and creatinine to ascertain liver, heart, kidney and pancreas related toxicity. For morphological examination of blood cells, whole blood is collected in microtainer tubes containing K2EDTA (BD Microtainer, BD, Franklin Lakes, N.J.) and RBC, WBC, lymphocytes, monocytes, eosinophils, platelets, total hemoglobin and hematocrit percentage analyzed. Blood is also microscopically examined for segregates, polychromatin bodies, and smudge cells. A portion of vital organs—liver, heart, kidney, intestine, pancreas and adrenal—from each animal is formalin fixed and paraffin-embedded to examine for toxicity-associated changes in cell morphology and organization following H&E staining. […] Thus, PBISe treatment has negligible associated systemic toxicity at the concentrations examined.
# [9] = system: HT-29 colorectal adenocarcinoma cells; assay: MTS cell viability assay, HT-29; type: cell-based; conditions: Homo sapiens; HT-29; 24-72 hours; MTS; read-out: Inhibition of growth IC50, HT-29 (Table II)
# [10] = UACC 903, 7-21 μM, 24 hours, compared to PBIT
smiles,measurement,setting,value
"N=C(N)[Se]CCc1ccc(CC[Se]C(=N)N)cc1 [PBISe, s,s′-1,4-phenylene-bis(1,2-ethanediyl)bis-isoselenourea dihydrobromide]",cleaved caspase-3 and PARP,"[1]; UACC 903, 7-21 μM, 24 hours",increases
same,phosphorylation of downstream Akt3 substrate PRAS40,"[1]; UACC 903, 7-21 μM, 24 hours",inhibited
same,Akt phosphorylation,[1]; [10],inhibits
same,total Akt protein levels,[1]; [10],decreases
same,cyclin D1 levels,"[1]; melanoma cells, FIG. 4C",reduces
same,p27 as well as p21 levels,"[1]; three cell lines, FIG. 4C",increases
same,IC50,"[2]; Homo sapiens, A549, 24 h, read-out: Inhibition Cancer Cells IC50, A549 (Table III)",4.2 ± 0.58 µM
same,"Fold increase in efficacy (PBIT/PBISe), A549","[2]; ratio of IC50 PBIT/PBISe, A549",>23.8 fold
same,decrease in tumor volume versus vehicle acetone or PBIT treated mice,UACC 903 melanoma tumors,50%
same,IC50,"[3]; Homo sapiens, HT-1080, 24 h, read-out: Inhibition Cancer Cells IC50, HT-1080 (Table III)",3.2 ± 0.61 µM
same,"Fold increase in efficacy (PBIT/PBISe), HT-1080","[3]; ratio of IC50 PBIT/PBISe, HT-1080",>31.2 fold
same,IC50,"[4]; Homo sapiens, OVCAR-3, 24 h, read-out: Inhibition Cancer Cells IC50, OVCAR-3 (Table III)",5.3 ± 0.65 µM
same,"Fold increase in efficacy (PBIT/PBISe), OVCAR-3","[4]; ratio of IC50 PBIT/PBISe, OVCAR-3",>18.9 fold
same,"fold more potent at decreasing cell viability compared to PBIT, all cancer cell lines tested","[5]; A549, Caco-2, HT-1080, PC-3, OVCAR-3, MDA-MB-231, WM115",> 10 fold
same,IC50,"[5]; Homo sapiens, read-out: concentration decreasing cell viability by 50% (IC50), cancer cell lines of Table III",8 to 10 µM
same,increase in G2/M cells,UACC 903 melanoma cells,~3 fold
same,sub G0/G1 population,UACC 903 melanoma cells,increased
same,"fold more sensitive, colon adenocarcinoma cells than normal cells",[6]; colon lines vs FF2441,2-7 fold
same,IC50,"[6]; read-out: IC50 range, four colon cancer cell lines",2.4 to 5.55 µM
same,IC50,"[7]; Homo sapiens, MDA-MB-231, 24 h, read-out: Inhibition Cancer Cells IC50, MDA-MB-231 (Table III)",6 ± 0.54 µM
same,"Fold increase in efficacy (PBIT/PBISe), MDA-MB-231","[7]; ratio of IC50 PBIT/PBISe, MDA-MB-231",>16.7 fold
same,"blood parameters (SGOT, SGPT, alkaline phosphatase, blood urea, glucose and creatinine)",[8]; i.p. 0.315 μmoles,"did not detect significant liver, kidney or cardiac related toxicity"
same,histological examination of H&E stained vital organ sections,[8]; i.p. 0.315 μmoles,did not significantly change cell morphology or organ structure
same,body weight during treatment,[8]; i.p. 3 times per week,No significant difference
same,IC50,[9],3.84 ± 0.44 µM
